Assay results published in the NIST ThermoML archive (doi:10.1016/j.fluid.2015.03.021).
Numbers after ± are expanded uncertainties.

Assay: excess molar enthalpy (molar enthalpy of mixing); xn = mol fraction of the nth substance listed
Settings: 101 kPa, Liquid, Calvet calorimetry

CN1CCNCC1 [N-methylpiperazine] + O
Settings | excess molar enthalpy [kcal/mol]
303.15 K, x1 = 0.0495 | -0.475 ± 0.0194
303.15 K, x1 = 0.0997 | -0.834 ± 0.0335
303.15 K, x1 = 0.2004 | -1.18 ± 0.0478
303.15 K, x1 = 0.3006 | -1.28 ± 0.0526
303.15 K, x1 = 0.3993 | -1.18 ± 0.0478
303.15 K, x1 = 0.6 | -0.841 ± 0.0335
303.15 K, x1 = 0.7973 | -0.435 ± 0.0177
323.15 K, x1 = 0.3991 | -1.12 ± 0.0454
323.15 K, x1 = 0.4012 | -1.11 ± 0.0454
323.15 K, x1 = 0.4193 | -1.09 ± 0.0454
323.15 K, x1 = 0.4994 | -0.983 ± 0.0406
323.15 K, x1 = 0.5981 | -0.823 ± 0.0335
323.15 K, x1 = 0.7019 | -0.617 ± 0.0263
323.15 K, x1 = 0.8001 | -0.42 ± 0.0172
323.15 K, x1 = 0.8964 | -0.226 ± 0.0117

OCCNCCO [diethanolamine] + O
298.15 K
Settings | excess molar enthalpy [kcal/mol]
x1 = 0.1002 | -0.269 ± 0.011
x1 = 0.2057 | -0.416 ± 0.017
x1 = 0.2992 | -0.484 ± 0.0196
x1 = 0.3535 | -0.49 ± 0.0198
x1 = 0.403 | -0.487 ± 0.0198
x1 = 0.5035 | -0.449 ± 0.0182
x1 = 0.6967 | -0.303 ± 0.0124
x1 = 0.8826 | -0.12 ± 0.00478
